Here are results for 18 compounds from patent US7109193B2, “Tricyclic diazepines tocolytic oxytocin receptor antagonists” (Wyeth, priority 2001, dated 2006).

By inhibition is commonly meant the relative decrease from the control value, in per cent.

In the experiment the target is T1, human vasopressin V1a receptor subtype (Homo sapiens, UniProt P37288).
T1 construct: host or cells: CHO cells (pZeoSV vector for the Thibonnier line)
Nature of the experiment: Vasopressin binding in Chinese Hamster Ovary cell membranes expressing human vasopressin V1a subtype receptors. The following applies: 100 nM, CHO cell membranes, [3H]Manning ligand, values without parentheses. As for the experimental part:
Vasopressin Binding in Chinese Hamster Ovary Cell Membranes Expressing Human Vasopressin V1a Subtype Receptors
The trypsin is removed by aspiration and the cells dislodged by tapping. Cell Culture medium (e.g. 30 mL for 1:30 split) is immediately added and mixed well to inactivate trypsin. 1 mL of detached cells is added to new culture flasks containing fresh cell culture medium (e.g., into 25 mL per T-150 flask), and mixed gently. The cells are incubated at 37° C. in 5% CO2. The medium is changed at 3 to 4 days interval (or as appropriate). […] All steps are done under sterile conditions. B. Membrane Preparation: The cells are washed twice gently with Hank's Balanced Salt solution (e.g,. use 10 mL per T-150 flask). […] The contents are transferred to centrifuge tubes (50 mL) kept in an ice bath. All subsequent steps are done at 4° C. The tubes are centrifuged at 300×g for 15 min (1380 rpm on SORVAL, Model RT6000D, using the rotor for 50 mL tubes). The supernatant is discarded and the cells suspended in homogenizing buffer(10 mM Tris-HCl containing 0.25 M sucrose and 1 mM EDTA, pH 7.4) ensuring that the volume of the buffer is about ten times the volume of the cell pellet. The cells are pooled into a centrifuge tube (50 mL) and homogenized with a Polytron at setting 6 for 10 sec. The homogenate is transferred into a Potter-Elvjehm homogenizer and homogenized with 3 strokes. The homogenate is centrifuged at 1500×g for 10 min at 4° C. (3100 rpm using SORVAL, model RT6000D, using the rotor for 50 mL tubes). The pellet is discarded. The supernatant is centrifuged at 100,000×g for 60 min. at 4° C. (Beckman L8-80M ultracentrifuge; spin at 37,500 rpm with rotor type 70 Ti for 50 mL tubes; 38,000 rpm with type 80Ti for 15 mL tubes; or 35,800 rpm with rotor type 45Ti). The supernantant is discarded and the pellet suspended in 3 to 4 mL of Tris buffer (50 mM TRIS-HCl, pH 7.4). The protein content is estimated by the Bradford or Lowry method. The volume of the membrane suspension is adjusted with the membrane buffer (50 mM Tris-HCl containing 0.1% BSA and 0.1 mM PMSF) to give 3.0 mg/mL (or as appropriate) of protein. The membranes are aliquoted and stored at −70° C. C. Radioligand Binding Assay: In wells of a 96-well format microtiter plate, is added 90, 110 or 130 μL (to make up a final volume of 200 μL) of assay buffer containing 50 mM of Tris-HCl (pH 7.4), BSA (heat inactivated, protease-free), […], 1 mg % aprotinin, 1 mg % leupeptin, 2 mg % 1,10-phenanthroline, 10 mg % trypsin inhibitor, and 0.1 mM PMSF. The inhibitors are added on the day of the experiment. The components are mixed at room temperature, and then kept in ice bath following adjustment of the pH to 7.4. […] 20 μL of 50% DMSO is added for Manning and other peptide ligands and the assay buffer volume is adjusted accordingly. To each well is added 50 μL of frozen membrane suspension thawed immediately prior to use and diluted in the assay buffer to the required concentration (equivalent to 25 to 50 μg of protein/well as needed). 20 μL of 8 nM [^3H]Manning ligand in the assay buffer, prepared just before use, is added, and incubated at room temperature for 60 min. shaking the plate on a mechanical shaker for the first 15 min. The incubation is stopped by rapid filtration of the plate contents followed by wash with ice-cold buffer (50 mM Tris-HCl, pH 7.4) using a cell harvester (Tomtek and Printed filtermat-B filter paper). The filter paper is thoroughly dried (7–12 min. in a microwave oven) and impregnated with MeltiLex B/H melt-on scintillation wax sheets and the radioactivity counted in a betaplate scintillation counter.
Binding data is either reported as percent inhibition at a certain concentration or if an IC50 was calculated, as a nanomolar concentration.

T1 sequence (P37288 whole entry): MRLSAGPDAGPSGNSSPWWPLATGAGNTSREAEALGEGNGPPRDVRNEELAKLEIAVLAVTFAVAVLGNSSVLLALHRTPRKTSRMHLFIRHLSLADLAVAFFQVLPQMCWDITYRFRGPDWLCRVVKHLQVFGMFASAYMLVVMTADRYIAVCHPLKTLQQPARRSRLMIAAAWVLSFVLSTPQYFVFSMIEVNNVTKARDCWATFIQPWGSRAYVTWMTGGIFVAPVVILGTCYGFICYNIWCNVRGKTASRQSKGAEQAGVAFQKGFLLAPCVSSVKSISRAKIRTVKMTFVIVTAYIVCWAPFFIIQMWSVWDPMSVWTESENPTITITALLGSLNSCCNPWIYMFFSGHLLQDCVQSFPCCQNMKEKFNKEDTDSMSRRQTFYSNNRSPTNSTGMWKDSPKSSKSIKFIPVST

For `COc1ccccc1-c1ccc(C(=O)N2Cc3ccc(C(=O)N4CCC(N5CCCCC5)CC4)n3Cc3ccccc32)cc1OC` [Example 119, {10-[(2,2′-Dimethoxy-[1,1′-biphenyl]-4-yl)carbonyl]-10,11-dihydro-5H-pyrrolo[2,1-c][1,4]benzodiazepin-3-yl}[4-(1-piperidinyl)-1-piperidinyl]methanone], the inhibition at 0.1 µM was found to be 9%. Take `COc1cccc(-c2ccc(C(=O)N3Cc4ccc(C(=O)N5CCC[C@H]5CN5CCCC5)n4Cc4ccccc43)cc2OC)c1` [Example 270, {10-[(2,3′-Dimethoxy[1,1′-biphenyl]-4-yl)carbonyl]-10,11-dihydro-5H-pyrrolo[2,1-c][1,4]benzodiazepin-3-yl}[(2S)-2-(1-pyrrolidinylmethyl)pyrrolidinyl]methanone]: the “V1a % inhibition @ 100 nM” value was 40%. Take `Cc1ccccc1-c1ccc(C(=O)N2Cc3ccc(C(=O)N4CCC(N5CCCCC5)CC4)n3Cc3ccccc32)cc1C` [Example 113, {10-[(2-Methyl-2′-methyl[1,1′-biphenyl]-4-yl)carbonyl]-10,11-dihydro-5H-pyrrolo[2,1-c][1,4]benzodiazepin-3-yl}[4-(1-piperidinyl)-1-piperidinyl]methanone]: the inhibition at 0.1 µM was determined as 45%. Take `COc1cccc(-c2ccc(C(=O)N3Cc4ccc(C(=O)N5CCC(N6CCCC6)CC5)n4Cc4ccccc43)cc2C)c1` [Example 139, {10-[(3′-Methoxy-2-methyl[1,1′-biphenyl]-4-yl)carbonyl]-10,11-dihydro-5H-pyrrolo[2,1-c][1,4]benzodiazepin-3-yl}[4-(1-pyrrolidinyl)-1-piperidinyl]methanone]: the inhibition at 0.1 µM was 9%. Still for that read-out and setting: in the case of `COc1cc(C(=O)N2Cc3ccc(C(=O)N4CCC(N5CCCCC5)CC4)n3Cc3ccccc32)ccc1-c1cccc2ccccc12` [Example 118, {10-[3-Methoxy-4-(1-naphthyl)-benzoyl]-10,11-dihydro-5H-pyrrolo[2,1-c][1,4]benzodiazepin-3-yl}[4-(1-piperidinyl)-1-piperidinyl]methanone] it was 14%; in that of `O=C(c1ccc2n1Cc1ccccc1N(C(=O)c1ccc(-c3cccc4ccccc34)cc1Cl)C2)N1CCC(N2CCCC2)CC1` [Example 147, {10-[2-Chloro-4-(1-naphthyl)benzoyl]-10,11-dihydro-5H-pyrrolo[2,1-c][1,4]benzodiazepin-3-yl}[4-(1-pyrrolidinyl)-1-piperidinyl]methanone], 3%.

Turning to `COc1cc(C(=O)N2Cc3ccc(C(=O)N4CC[C@@H](N(C)C)C4)n3Cc3ccccc32)ccc1-n1c(C)ccc1C` [Example 322, [(3R)-3-(Dimethylamino)pyrrolidinyl]{10-[4-(2,5-dimethyl-1H-pyrrol-1-yl)-3-methoxybenzoyl]-10,11-dihydro-5H-pyrrolo[2,1-c][1,4]benzodiazepin-3-yl}methanone], the “V1a % inhibition @ 100 nM” value is listed as 12%.

As to `COc1cc(C(=O)N2Cc3ccc(C(=O)N4CCC(N5CCCC5)CC4)n3Cc3ccccc32)ccc1-c1cccc2ccccc12` [Example 144, {10-[3-Methoxy-4-(1-naphthyl)benzoyl]-10,11-dihydro-5H-pyrrolo[2,1-c][1,4]benzodiazepin-3-yl}[4-(1-pyrrolidinyl)-1-piperidinyl]methanone], the inhibition at 0.1 µM was -1%. As to `COc1ccccc1-c1ccc(C(=O)N2Cc3ccc(C(=O)N4CCC[C@H]4CN4CCCC4)n3Cc3ccccc32)cc1C` [Example 259, {10-[(2′-Methoxy-2-methyl[1,1′-biphenyl]-4-yl)carbonyl]-10,11-dihydro-5H-pyrrolo[2,1-c][1,4]benzodiazepin-3-yl}[(2S)-2-(1-pyrrolidinylmethyl)pyrrolidinyl]methanone], the “V1a % inhibition @ 100 nM” value amounted to 21%.

Regarding `Cc1ccccc1-c1ccc(C(=O)N2Cc3ccc(C(=O)NCCN4CCCCC4)n3Cc3ccccc32)cc1` [Example 153, 10-[(2′-Methyl[1,1′-biphenyl]-4-yl)carbonyl]-N-[2-(1-piperidinyl)ethyl]-10,11-dihydro-5H-pyrrolo[2,1-c][1,4]benzodiazepine-3-carboxamide], the inhibition at 0.1 µM amounted to 50%. Still for that read-out and setting: next, `Cc1cc(C(=O)N2Cc3ccc(C(=O)NCCCn4ccnc4)n3Cc3ccccc32)ccc1-c1ccccc1C(F)(F)F` [Example 135, N-[3-(1H-Imidazol-1-yl)propyl]-10-{[2-methyl-2′-(trifluoromethyl)[1,1′-biphenyl]-4-yl]carbonyl}-10,11-dihydro-5H-pyrrolo[2,1-c][1,4]benzodiazepine-3-carboxamide]: 2%. For `COc1ccccc1-c1ccc(C(=O)N2Cc3ccc(C(=O)N4CCC[C@H]4CN4CCCC4)n3Cc3ccccc32)cc1OC` [Example 269, {10-[(2,2′-Dimethoxy[1,1′-biphenyl]-4-yl)carbonyl]-10,11-dihydro-5H-pyrrolo[2,1-c][1,4]benzodiazepin-3-yl}[(2S)-2-(1-pyrrolidinylmethyl)pyrrolidinyl]methanone], the “V1a % inhibition @ 100 nM” value is reported as −1%. `O=C(c1ccc(-c2cccc3ccccc23)cc1Cl)N1Cc2ccc(C(=O)N3CCC[C@H]3CN3CCCC3)n2Cc2ccccc21` [Example 261, {10-[2-Chloro-4-(1-naphthyl)benzoyl]-10,11-dihydro-5H-pyrrolo[2,1-c][1,4]benzodiazepin-3-yl}[(2S)-2-(1-pyrrolidinylmethyl)pyrrolidinyl]methanone]: the “V1a % inhibition @ 100 nM” value was found to be 13%. Take `COc1ccccc1-c1ccc(C(=O)N2Cc3ccc(C(=O)NCCCn4ccnc4)n3Cc3ccccc32)cc1OC` [Example 132, 10-[(2,2′-Dimethoxy[1,1′-biphenyl]-4-yl)carbonyl]-N-[3-(1H-imidazol-1-yl)propyl]-10,11-dihydro-5H-pyrrolo[2,1-c][1,4]benzodiazepine-3-carboxamide]: the inhibition at 0.1 µM came out at 2%. Same read-out and setting: in the case of `Cc1ccccc1-c1ccc(C(=O)N2Cc3ccc(C(=O)N4CCC(N5CCCC5)CC4)n3Cc3ccccc32)cc1` [Example 141, {10-[(2′-Methyl[1,1′-biphenyl]-4-yl)carbonyl]-10,11-dihydro-5H-pyrrolo[2,1-c][1,4]benzodiazepin-3-yl}[4-(1-pyrrolidinyl)-1-piperidinyl]methanone] it was -3%.

Consider `COc1ccccc1-c1ccc(C(=O)N2Cc3ccc(C(=O)N4CC[C@@H](N(C)C)C4)n3Cc3ccccc32)cc1` [Example 279, [(3R)-3-(Dimethylamino)pyrrolidinyl]{10-[(2′-methoxy[1,1′-biphenyl]-4-yl)carbonyl]-10,11-dihydro-5H-pyrrolo[2,1-c][1,4]benzodiazepin-3-yl}methanone], for which the “V1a % inhibition @ 100 nM” value is 39%.

Take `O=C(NCCCn1ccnc1)c1ccc2n1Cc1ccccc1N(C(=O)c1ccc(-c3cccc4ccccc34)cc1Cl)C2` [Example 134, 10-[2-Chloro-4-(1-naphthyl)benzoyl]-N-[3-(1H-imidazol-1-yl)propyl]-10,11-dihydro-5H-pyrrolo[2,1-c][1,4]benzodiazepine-3-carboxamide]: the inhibition at 0.1 µM is 5%. Consider `COc1ccccc1-c1ccc(C(=O)N2Cc3ccc(C(=O)N4CC[C@@H](N(C)C)C4)n3Cc3ccccc32)cc1OC` [Example 282, {10-[(2,2′-Dimethoxy[1,1′-biphenyl]-4-yl)carbonyl]-10,11-dihydro-5H-pyrrolo[2,1-c][1,4]benzodiazepin-3-yl][(3R)-3-(dimethylamino)pyrrolidinyl]methanone], for which the “V1a % inhibition @ 100 nM” value came out at 1%.
